Laboratory results from patent US8956646B2, “Zwitterionic lipids” (The Regents of the University of California, priority 2010, dated 2015).
Values belong to the compound of their own block, whether it stands above or below them.

What was measured:
[1] = SBL liposome formation, diameter and PDI in various salts; assay type: physicochemical; parameters: key to Liposome diameter (nm): DNF=Did Not Form, no liposomes formed
Description: The five SBLs were first examined for their ability to make vesicles under standard buffer conditions (10 mM HEPES, 140 mM NaCl, pH 7.4). We observed that none of the five SBLs were able to form stable liposomes after thin film rehydration in this buffer followed by sonication at 80° C. […] To test if the SB headgroup inner salt interactions could be disrupted by an increase in salt concentration, the same liposome formation process was performed at increasing NaCl concentrations. Salts with different anions were also tested to determine if those predicted to have greater binding than Cl^− would allow for liposome formation at concentrations where NaCl was not able to. Liposome-formation results are shown in Table 4 for all five SBLs with a variety of salts and at various NaCl concentrations.
Liposome preparations were made at 26 mM lipid in 10 mM HEPES buffer, pH 7.4 with the specified salt concentration. All preparations were rehydrated and sonicated at 80° C. for 7 minutes, allowed to cool for 5 minutes and then measured.
Liposome diameters were measured both five minutes after sonication and at 24 hours. DPSB and DSSB in NaI both formed gels and could not be measured and DPSB and DSSB with KBr precipitated into particles too large and polydisperse for measurement.

[2] = Phase transition temperatures of sulfobetaine lipids (DSC); assay type: physicochemical
Description: All buffers contain 10 mM HEPES, pH 7.4. Preparations were made at 26 mM SB lipid by thin film rehydration at 80° C., followed by brief 20 second bursts of sonication at 80° C. (˜2-4 times) to make dispersions of large bilayer fragments.
Based on our observations that SBL liposome formation and stability is largely dependent on salt composition and concentration we sought to determine if these effects changed the transition temperatures of the liposomes. The data in FIG. 3 clearly depicts a bi-modal phase transition behavior for the SBLs. Without salt, the majority of the SBLs are likely in one of the inner salt forms supported by the observed elevated transition temperatures.
Inner and outer salt conformations of the SBLs are hypothesized to coordinate to the observed high and low phase transitions, respectively.

[3] = literature values, cited from earlier work; for Transition Temperatures (° C.), PE: PE headgroup; for Transition Temperatures (° C.), PC: PC headgroup
[4] = ZNLP hydrodynamic diameter, zeta potential and encapsulation efficiency; assay type: physicochemical; conditions: ZNLP encapsulating siRNA
Description: 5-10 min after particle formation liposomes are extruded through either 50 nm or 80 nm polycarbonate membranes 7 times. Methanol can be removed by either evaporation or dialysis.
FIG. 29 is a table showing ZNLP encapsulating siRNA: hydrodynamic diameter and zeta potential: siRNA was encapsulated into ZNLP from various zwitterionic lipids.
FIG. 30 is a table showing the effect of helper lipids on size and encapsulation efficiency: Changing helper lipid and lipid composition affects size and encapsulation efficiency of ZNLP. DOBA-Q formed small lipid vesicles≦80 nm. […] All lipid formulations display negative/neutral zeta potential.

[5] = Zeta potential of BLL containing vesicles as a function of pH; assay type: physicochemical; conditions: changing ratio of DOBAQ:DOPC
Description: Liposomes containing quaternary BLL remain neutral at pH>pI, while liposomes containing tertiary BLL move from neutral to anionic as pH increases above the pI due to deprotonation of the amine.
All other lipids show pH responsive behavior, with 4° BLL generally transitioning from cationic to neutral, and 3° from cationic to neutral to anionic.
Further analysis is required to fully understand this behavior.

[6] = 0 mM NaCl, 26 mM lipid, 10 mM HEPES pH 7.4
[7] = 150 mM KBr, five minutes after sonication
[8] = 150 mM NaCl, 26 mM lipid, 10 mM HEPES pH 7.4
[9] = 150 mM NaClO4, five minutes after sonication
[10] = 150 mM NaI, five minutes after sonication
[11] = 500 mM NaCl, 26 mM lipid, 10 mM HEPES pH 7.4
[12] = 1000 mM NaCl, 26 mM lipid, 10 mM HEPES pH 7.4

Liposome diameter (nm) [1, 6]: DNF
Liposome diameter (nm) ([1]; 150 mM KBr (24 h)): Precipitated
Liposome diameter (nm) [1, 7]: 64.35 nm
PDI [1, 7]: 0.134
Liposome diameter (nm) [1, 8]: DNF
Liposome diameter (nm) ([1]; 150 mM NaClO4 (24 h)): 42.71 nm
PDI ([1]; 150 mM NaClO4 (24 h)): 0.353
Liposome diameter (nm) [1, 9]: 35.1 nm
PDI [1, 9]: 0.220
Liposome diameter (nm) ([1]; 150 mM NaF): DNF
Liposome diameter (nm) ([1]; 150 mM NaI (24 h)): Formed Gel
Liposome diameter (nm) [1, 10]: 57.45 nm
PDI [1, 10]: 0.296
Liposome diameter (nm) [1, 11]: 66.95 nm
PDI [1, 11]: 0.253
Liposome diameter (nm) [1, 12]: 92.53 nm
PDI [1, 12]: 0.275
phase transitions observed ([2]; 150 mM NaClO4): only the high transition
phase transitions observed ([2]; 150 mM NaF): only the low transition
temperature of residual inner salt transition ([2]; 500 mM NaCl): 58 °C
Transition Temperatures (° C.), SB Inner Salt ([2]; hypothesized inner salt form, observed high phase transition): 60 °C
Transition Temperatures (° C.), SB Outer Salt ([2]; hypothesized outer salt form, observed low phase transition): 43 °C
SMILES: CCCCCCCCCCCCCCCC(=O)OCC(C[N+](C)(C)CCCS(=O)(=O)[O-])OC(=O)CCCCCCCCCCCCCCC (stereo not shown) [DPSB]
inner/outer salt form (high/low transition) as function of NaCl concentration ([2]; DSC, 10 mM HEPES pH 7.4, NaCl up to 1M): switches from the inner salt to the outer salt at 500 mM

SMILES: CCCCCCCCCCCCCC(=O)OC[C@H](COP(=O)(O)OCCN)OC(=O)CCCCCCCCCCCCC [C14 PE]
Transition Temperatures (° C.), PE [3]: 49.4 °C

siRNA encapsulation efficiency [4]: decreases encapsulation efficiency
SMILES: CCCCC/C=C\C/C=C\CCCCCCCC(=O)OC[C@H](COP(=O)(O)OCCN)OC(=O)CCCCCCC/C=C\C/C=C\CCCCC [DIinPE, reference compound]

SMILES: CCCCCCCCCCCCCCCC(=O)OC[C@H](COP(=O)([O-])OCC[N+](C)(C)C)OC(=O)CCCCCCCCCCCCCCC [C16 PC]
Transition Temperatures (° C.), PC [3]: 41.7 °C

Liposome diameter (nm) [1, 6]: DNF
Liposome diameter (nm) ([1]; 150 mM KBr (24 h)): 137.6 nm
PDI ([1]; 150 mM KBr (24 h)): 0.353
Liposome diameter (nm) [1, 7]: 120.8 nm
PDI [1, 7]: 0.260
Liposome diameter (nm) [1, 8]: DNF
Liposome diameter (nm) ([1]; 150 mM NaClO4 (24 h)): 69.18 nm
PDI ([1]; 150 mM NaClO4 (24 h)): 0.235
Liposome diameter (nm) [1, 9]: 67.7 nm
PDI [1, 9]: 0.250
Liposome diameter (nm) ([1]; 150 mM NaF): DNF
Liposome diameter (nm) ([1]; 150 mM NaI (24 h)): 99.24 nm
PDI ([1]; 150 mM NaI (24 h)): 0.253
Liposome diameter (nm) [1, 10]: 90.58 nm
PDI [1, 10]: 0.246
Liposome diameter (nm) [1, 11]: 126.9 nm
PDI [1, 11]: 0.197
Liposome diameter (nm) [1, 12]: 118.9 nm
PDI [1, 12]: 0.176
SMILES: CCCCCCCC/C=C\CCCCCCCC(=O)OCC(C[N+](C)(C)CCCS(=O)(=O)[O-])OC(=O)CCCCCCC/C=C\CCCCCCCC (stereo not shown) [DOSB]

SMILES: CCCCCCCCCCCCCCCCCC(=O)OC[C@H](COP(=O)([O-])OCC[N+](C)(C)C)OC(=O)CCCCCCCCCCCCCCCCC [C18 PC]
Transition Temperatures (° C.), PC [3]: 55.3 °C

SMILES: CCCCCCCCCCCCCCCC(=O)OCC(COP(=O)(O)OCCN)OC(=O)CCCCCCCCCCCCCCC (stereo not shown) [C16 PE]
Transition Temperatures (° C.), PE [3]: 63.5 °C

ZNLP size (hydrodynamic diameter) [4]: ≤ 80 nm
SMILES: CCCCCCCC/C=C\CCCCCCCC(=O)OCC(C[N+](C)(C)Cc1ccc(C(=O)[O-])cc1)OC(=O)CCCCCCC/C=C\CCCCCCCC (stereo not shown) [DOBAQ]
Zeta potential as function of pH, effect of BLL:DOPC ratio [5]: general relationship between pH and zeta potential is maintained at all ratios tested
